Results from patent publication US8242240B2, “Anti-inflammatory compounds and uses thereof” (Yale University, priority 2000, dated 2012).

Key:
[1] = biological target: T1, endogenous IKK complex (Homo sapiens, UniProt Q9Y6K9); experiment: Anti-NEMO immunoprecipitation of the IKK complex from peptide-treated HeLa cells; type: cell-based; settings: peptide 200 μM, anti-NEMO IP, anti-IKKβ blot
T1 construct: wild-type but not mutant disrupted the formation of the endogenous IKK complex; endogenous in cells; host or cells: HeLa
Experimental: (A) Sequences of wild-type (SEQ ID NO:18) and mutant (SEQ ID NO:19 forms of IKKβ NBD peptide. (B) GST-pull-down analysis was performed using either GST-NEMO-in vitro translated IKKβ (upper panel) or GST-IKKβ-(644-756)-in vitro translated NEMO (lower panel). The assay was performed in the absence (no peptide) or presence of increasing concentrations ([…], 500 or 1000 μM) of either mutant (MUT) (SEQ ID NO:19) or wild-type (WT) NBD (SEQ ID NO:18). (C) HeLa cells were incubated with either peptide (200 μM) for the times indicated. Following lysis, the IKK complex was immunoprecipitated using anti-NEMO and the resulting immunoblot probed with anti-IKKβ. (D) Gel image showing anti-NEMO immunoprecipitation. (E) Gel image showing anti-FLAG immunoblot. (F) HeLa cells were incubated for three hours with increasing concentrations: 50, 100 or 200 μM) of each peptide followed by treatment for fifteen minutes with TNFα (10 ng/ml) as indicated (+). Following lysis, nuclear extracts were made and 10 μg of protein from each sample was used for EMSA using a specific [^32P]-labeled κB-site probe. (G) Gel image showing anti-Phospho-C-Jun immunoblot and anti-β-Actin immunoblot. […] Subsequently the cells were either treated with TNFα (10 ng/ml) as indicated (toe panel) or left untreated (bottom panel) for a further four hours after which NF-κB activation was measured by luciferase assay. […]

[2] = test system: NF-κB; experiment: EMSA of nuclear extracts from TNFα-treated HeLa cells; type: cell-based, human; settings: peptide 50, 100 or 200 μM 3 h, TNFα 10 ng/ml 15 min
[3] = test system: mice (PMA-induced ear edema); experiment: PMA-induced ear edema in mice; type: in vivo; settings: topical 200 μg/ear
Experimental: The NBD peptide was tested for its ability to inhibit inflammatory responses in animals using two distinct models of acute inflammation. In the first model, ear edema was induced in mice using phorbol-12-myristate-13-acetate (PMA) and the effects of topical administration of the NBD peptides were measured. Ear edema using PMA was induced in replicate groups of age and sex matched mice as previously described (Chang et al., (1987) Eur. J. Pharmacol. 142, 197-205). Twenty μl of either NBD peptides (200 μg/ear), dexamethasone (40 μg/ear) or vehicle (DMSO:Ethanol; 25:75 v/v) was applied topically to the right ear of mice thirty minutes before and thirty minutes after the application of 20 μl of PMA (5 μg/ear) dissolved in ethanol. Ear swelling was measured six hours after PMA application using a microgauge and expressed as the mean difference in thickness between the treated (right) and untreated (left) ears. Statistical analysis of the data was performed using the students t-test. A value of p<0.05 was considered statistically significant.

[4] = test system: mice (zymosan-induced peritonitis); experiment: Zymosan-induced peritonitis in mice; type: in vivo, mice (C57BL/6NCR); settings: for PMN accumulation / exudate formation: NBD peptides 200 mg/ml i.p. with zymosan
Experimental: In a second model, peritonitis was induced in mice by intraperitoneal (i.p.) injection of zymosan either alone or in combination with dexamethasone or the NBD peptides. For zymosan-induced peritonitis, measurement of peritoneal exudates and inflammatory cell collections from replicate groups of age and sex matched mice (C57BL/6NCR) were performed as previously described (Getting et al., (1998) Immunology 95, 625-630). Groups of animals were injected concomitantly with one ml zymosan (1 mg/ml) and either dexamethasone (100 mg/ml) or the NBD peptides (200 mg/ml). The concentration of NOX (nitrate plus nitrite) present in the inflammatory exudates was measured using a colorimetric assay kit (Alexis Corporation) according to the manufacturers protocol.

[5] = test system: Mouse bone marrow cells; experiment: RANKL-induced osteoclast differentiation of bone marrow cells; type: cell-based; settings: M-CSF 20 ng/ml + RANKL 100 ng/ml, six days, peptide 6.25, 12.5 and 25 mM
Excerpt: Osteoporosis is a severely debilitating disease characterized by an extensive loss of bone mass that is mediated by osteoclast-dependent bone resorbtion (Suda et al., (1992) Endocr. Rev. 13, 66-80; Suda et al., (1999) Endocr. Rev. 20, 345-357). It is therefore possible that selective inhibition of NF-κB activation in osteoclast precursor cells would prevent osteoclast differentiation and provide the basis for therapeutically effective drugs for the treatment of osteoporosis. Therefore the effect of the NBD peptides on osteoclast differentiation was tested using a previously described in vitro model (Jimi et al., (1999) Exp. Cell Res. 247, 84-93). Mouse bone marrow cells plated into 48-well tissue culture trays were incubated with human macrophage-colony stimulating factor (M-CSF; 20 ng/ml) and human RANKL (100 ng/ml) for six days in the absence or presence of various concentrations ([…]) of either mutant or wild-type NBD peptide. The cells were then fixed and stained for the osteoclast phenotypic marker tartrate-resistant acid phosphatase (TRAP) and TRAP-positive mutinucleated cells containing more than three nuclei were counted as osteoclasts. Triplicate samples were counted and results were calculated as means±SD.

[6] = NBD peptide 200 mg/ml i.p. with zymosan

T1 sequence (Q9Y6K9 whole entry, one chain of several): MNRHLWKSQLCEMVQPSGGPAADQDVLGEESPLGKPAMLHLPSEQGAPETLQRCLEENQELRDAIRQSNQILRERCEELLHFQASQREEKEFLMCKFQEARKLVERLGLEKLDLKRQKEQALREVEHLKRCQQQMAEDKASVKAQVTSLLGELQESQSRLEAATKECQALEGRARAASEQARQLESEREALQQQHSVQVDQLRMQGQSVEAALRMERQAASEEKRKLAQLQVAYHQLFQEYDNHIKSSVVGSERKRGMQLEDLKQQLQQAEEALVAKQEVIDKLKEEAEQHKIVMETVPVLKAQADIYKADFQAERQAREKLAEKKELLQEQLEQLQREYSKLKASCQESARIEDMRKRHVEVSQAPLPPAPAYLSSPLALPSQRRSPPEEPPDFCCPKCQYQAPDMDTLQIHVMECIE

[DRQIKIWFQNRRMKWKK]TALDWSWLQTE (DRQIKIWFQNRRMKWKKTALDWSWLQTE; Description of Unknown: Unknown wildtype NBD peptide) [wild-type NBD peptide]
disruption of the formation of the endogenous IKK complex [1]: disrupted | inhibition of TNFα-induced activation and nuclear translocation of NF-κB (EMSA) [2]: inhibited | inhibition of PMA-induced ear thickening ([3]; 30 min before and after PMA 5 μg/ear, 6 h): 77±3% | reduction of NOX in peritoneal exudates [4, 6]: 66±4% | PMN accumulation [4]: significantly reduced | exudate formation [4]: significantly reduced | inhibition of osteoclast differentiation (TRAP-positive multinucleated cells) ([5]; listed as wild type): dose-dependently inhibited | inhibition of osteoclast differentiation (TRAP-positive multinucleated cells) ([5]; listed as wild-type): dose dependent inhibition

[DRQIKIWFQNRRMKWKK]TALDASALQTE (DRQIKIWFQNRRMKWKKTALDASALQTE; Description of Artificial Sequence: Synthetic Mutant NBD peptide) [identical to wild-type NBD peptide except W739 and W741 mutated to alanine, reference compound]
disruption of the formation of the endogenous IKK complex [1]: not | effect on PMA-induced ear thickening ([3]; p=0.09): insignificant | effect on NOX in peritoneal exudates [4, 6]: no effect | PMN accumulation [4]: no effect | exudate formation [4]: no effect | inhibition of osteoclast differentiation (TRAP-positive multinucleated cells) [5]: not
